Measurements: article PMC3499488, “A Potential Peptide Therapeutic Derived from the Juxtamembrane Domain of the Epidermal Growth Factor Receptor” (PLoS ONE, 2012)
Where a SMILES comes first, the peptide text is derived from it.

Key:
[1] = tested on: NR6 cells; assay: Cellular entry of FAM-labeled peptide, fluorescent confocal microscopy; assay type: cell-based; conditions: FAM-labeled peptide 5 µM, serum starved cells, confocal fluorescence
Method: (§1) MDA-MB-231 cells (1×10^5 cells per plate) were plated on 35 mm glass-bottom plates (MatTek Corporation, Ashland, MA), allowed to adhere overnight, then serum starved overnight and analyzed the following day in HBSS (Hank’s balanced salt solution). For real-time uptake of the FAM-labeled peptides, after recording background images, the FAM-labeled peptides were added and cells were imaged every two minutes over approximately 30 minutes. After 30 minutes, images were taken less frequently. Images from representative timepoints are shown. For overnight treatment, the cells were treated in serum-starved media, exchanged into HBSS the following day and imaged.
(§2) FAM-TE-64562 enters in SK-N-MC cells without any effect of EGF pretreatment. Confocal images of overnight serum starved MDA-MB-231 cells before treatment (0 min) and treated for 90 minutes (A) with 5.0 µM […], (B) with 1.25 µM FAM-Tat or (C) with 2.5 µM FAM-Tat for 60 minutes. (D) SK-N-MC were serum starved overnight and treated with FAM-TE-64562 (1.5 µM) for 16 minutes. (E) NR6 cells MC were serum starved overnight and treated with FAM-TE-64562 (5 µM) for 20 minutes. All scale bars are 20 µm. (TIF) Click here for additional data file.

[2] = tested on: SK-N-MC cells; assay: as above; assay type: cell-based, human; conditions: FAM-labeled peptide 1.5 µM, serum starved cells, confocal fluorescence
Method: as §1, §2

For `CC[C@H](C)[C@H](NC(=O)[C@H](Cc1c[nH]cn1)NC(=O)[C@H](CCCNC(=N)N)NC(=O)[C@H](CCCNC(=N)N)NC(=O)[C@H](CCCNC(=N)N)NC(=O)CNC(=O)[C@H](CCCNC(=N)N)NC(=O)[C@H](CCCNC(=N)N)NC(=O)[C@H](CCCNC(=N)N)NC(=O)[C@H](CCC(N)=O)NC(=O)[C@H](CCCNC(=N)N)NC(=O)[C@H](CCCNC(=N)N)NC(=O)[C@H](CCCCN)NC(=O)[C@H](CCCCN)NC(=O)[C@H](CCCNC(=N)N)NC(=O)c1ccc2c(c1)C(=O)OC21c2ccc(O)cc2Oc2cc(O)ccc21)C(=O)N[C@H](C(=O)N[C@@H](CCCNC(=N)N)C(=O)N[C@@H](CCCCN)C(=O)N[C@@H](CCCNC(=N)N)C(=O)N[C@H](C(=O)N[C@@H](CC(C)C)C(=O)N[C@@H](CCCNC(=N)N)C(=O)N[C@@H](CCCNC(=N)N)C(=O)N[C@@H](CC(C)C)C(=O)N[C@@H](CC(C)C)C(=O)N[C@@H](CCC(N)=O)C(=O)N[C@@H](CCC(=O)O)C(=O)N[C@@H](CCCNC(=N)N)C(=O)O)[C@@H](C)O)C(C)C` [FAM-conjugated TE-64562] (HELM PEPTIDE1{[O=C1OC2(c3ccc(O)cc3Oc3cc(O)ccc32)c2ccc(C(=O)[*:2])cc21].R.K.K.R.R.Q.R.R.R.G.R.R.R.H.I.V.R.K.R.T.L.R.R.L.L.Q.E.R}$$$$V2.0), the “time until peptide entered cells” value [1] was at most 15 min and the “time until peptide entered cells” value [2] was at most 15 min.
